{
  "source": "patent US9943599B2",
  "about": "“Therapeutic applications of calcium electroporation to effectively induce tumor necrosis” (Herlev Hospital, priority 2011, dated 2018)",
  "key": {"[1]": {"test_system": "basocellular carcinoma", "experiment": "Case study, calcium electroporation in a human patient", "type": "in vivo", "description": "In a patient with multiple basocellular carcinomas, where all known treatment options had been tried and the patient was still in need of treatment, calcium electroporation was tried.\nIn this patient, lesions that were verified by biopsy to contain basocellular carcinoma were treated with different doses of calcium chloride or calcium glubionate with electroporation. Three lesions were treated, measuring 0.8 to 2 cm, by 0.1-0.2 mm deep.\nAfter local anaesthesia (Mir et al), calcium was injected intratumorally using a thin needle and 1 ml syringe. Volumes of resp. 0.1, 0.7 and 3.7 times the calculated tumor volume (in this case calculated as diameter times perpendicular diameter times depth due to the shape of the tumors) was injected.\nImmediately after injection (within 45 seconds), electroporation was performed using a square wave pulse generator (CLINIPORATOR®, IGEA, Modena, Italy) and needle electrodes with parallel arrays 0.4 cm apart. Eight pulses of a duration of 0.1 ms and 1 kV/cm (voltage to electrode distance ratio) were administered immediately after calcium injection."}, "[2]": {"test_system": "CT26 (murine colon carcinoma) tumors", "experiment": "Calcium with sonoporation, CT26 tumor volume", "type": "in vivo, Balb/c mice", "description": "CT26, a murine colon carcinoma cell line was used for the in vivo experiments. The cells were tested by mycoplasma detection kit (Sigma, St. Louis, Mo.) before use without signs of infection. Cells were maintained in vitro in DMEM culture medium (Sigma, St. Louis, Mo.) with 10% fetal calf serum (Sigma, St. Louis, Mo.), L-glutamine, penicillin and streptomycin at 37° C. and 5% CO2. All antibiotics were removed from culture media 24 hours before tumour inoculation. 1.0×10^6 cells/200 μl serum free DMEM were injected subcutaneously in the right flank of 6-8 week old female Balb/c mice, in condition weighing 16-22 g. Mice were randomised at an average tumor size of approximately 5.0 mm in largest diameter and tumors were treated with 1) injection of isotonic calcium-chloride solution (168 mM CaCl2) and sonoporation (3.5 W/cm^2 at 1 MHz and 100% duty cycle for 2 minutes) using a SONITRON® 2000 ultrasound apparatus (Rich-Mar, Inola, Okla.), 2) sonoporation alone (same parameters as above), 3) isotonic calcium-chloride solution injection, or 4) no treatment. Tumor volume was calculated as ab^2n/6, where a is the largest diameter and b is the largest diameter perpendicular to a. […]\nThe difference in tumor volume between the different treatment groups at different time after treatment was assessed using student's t-test."}, "[3]": {"test_system": "muscle below MDA-MB231 tumor", "experiment": "Normal tissue reaction, muscle below the tumor", "type": "in vivo, NMRI-Foxn1nu mice", "conditions": "for fraction of necrosis in muscle tissue: with electroporation, 7 days", "description": "MDA-MB231, a human breast cancer cell line was used for the in vivo experiments. The cells were tested by rapid MAP27 panel (Taconic, Hudson N.Y.) before use without signs of infection. Cells were maintained in vitro as described in Example 1. 2.5×10^6 cells/100 μl PBS were injected subcutaneously in the flank of NMRI-Foxn1nu mice (Harlan, Indianapolis, Ind.). Tumor pieces were transplanted twice from donor mice to the flank of nude mice that were 13-19 weeks old. HYPNORM™-DORMICUM™ (fentanyl/fluanisone/midazolam; VetaPharma, Leeds, U K and Roche, Basel, Switzerland) was used for anesthesia complemented with RIMADYL® (Carprofen) (Pfizer ApS, Ballerup, Denmark) as well as lidocaine (Region Hovedstadens Apotek, Herlev, Denmark) in the incision. Mice were randomised at a tumor volume above 85 mm^3 and tumors were treated with 1) injection of calcium-chloride solution and electroporation (8 pulses of 1.0 kV/cm for 100 μs and a frequency of 1 Hz) using a 6 mm plate electrode and a square wave electroporator (CLINIPORATOR®, IGEA, Modena, Italy), 2) calcium-free physiological saline injection and electroporation (same parameters as above), 3) injection of calcium-chloride, 4) calcium-free physiological saline injection, or 5) untreated but with needle inserted in the tumor without injection and with electrodes put on the tumor without pulses applied. […] Tumor volume was calculated as ab2n/6, where “a” is the largest diameter and “b” is the largest diameter perpendicular to “a”. […] Estimation of normal tissue damages was evaluated semiquantitatively on HE-sections by light[ ]microscopy (LEICA® DM 2000 light microscope, Leica Microsystems, Wetzlar, Germany).\nThe presence of necrosis in the muscle samples were scored by counting numbers of necrotic myocytes per 10 HPF (400× magnification). Necrosis was only recorded if the myocytes had lost the nucleus. Increased eosinofilic intensity in the myocyte cytoplasm with a retained nucleus was not recorded as a necrotic fiber. […]"}, "[4]": {"test_system": "H69 (human small cell lung cancer) tumors", "experiment": "Tumor volume and fluorescence intensity of H69 tumors on nude mice", "conditions": "for necrosis of skin / healthy tissue around the tumor: injected volume equivalent to the tumor volume (1 to 1 ratio)"}, "[5]": {"conditions": "168 mM CaCl2 with electroporation"}},
  "data": [
    {"compound": "[Ca+2].[Cl-].[Cl-]", "note": "[calcium chloride]", "values": [
      {"measurement": "normal skin reaction (clinical observation)", "setting": "[1]; highest volume (3.7 times tumor volume), with electroporation", "result": "necrosis of normal skin"},
      {"measurement": "tumor response (biopsy)", "setting": "[1]; injected volume 0.1 of tumor volume, with electroporation", "result": "did not lead to changes"},
      {"measurement": "tumor response (biopsy)", "setting": "[1]; injected volume 0.7 of tumor volume, electroporation 8 pulses 0.1 ms 1 kV/cm", "result": "efficient tumor cell kill"},
      {"measurement": "treated tumors eliminated", "setting": "[2]; 168 mM CaCl2, half tumor volume, sonoporation 3.5 W/cm^2, 1 MHz, 2 minutes, 7/8", "result": 88, "unit": "%"},
      {"measurement": "tumor volume", "setting": "[2]; isotonic calcium-chloride injection alone (control)", "result": "continues to increase"},
      {"measurement": "fraction of muscle tissue affected", "setting": "[3]; after calcium electroporation of the tumor above the muscle", "result": "only a minor fraction"},
      {"measurement": "fraction of necrosis in muscle tissue", "setting": "[3]; at increasing calcium concentrations", "result": "increase in the fraction of necrosis"},
      {"measurement": "fraction of necrosis in muscle tissue", "setting": "[3]; at increasing injection volumes", "result": "slight increase in the fraction of necrosis"},
      {"measurement": "treated tumors eliminated", "setting": "[4]; 168 mM CaCl2 intratumoral with electroporation (8 pulses 1.0 kV/cm, 100 μs, 1 Hz), 8/9", "result": 89, "unit": "%"},
      {"measurement": "healing of ulceration, average", "setting": "[4]; [5]", "result": 18, "unit": "days"},
      {"measurement": "healing of ulceration, range", "setting": "[4]; [5]", "result": "9 to 24", "unit": "days"},
      {"measurement": "ulceration of treated tumors", "setting": "[4]; [5]", "result": "occurs in all"},
      {"measurement": "fluorescence intensity of tumors", "setting": "[4]; 168 mM CaCl2 with electroporation, stays at background levels", "result": "decrease drastically"},
      {"measurement": "necrosis of skin / healthy tissue around the tumor", "setting": "[4]; with electroporation, listed as Ca^2+-EP", "result": "skin necrosis"},
      {"measurement": "necrosis of skin / healthy tissue around the tumor", "setting": "[4]; with electroporation, listed as calcium solution", "result": "necrotic effect on the healthy tissues surrounding the neoplasm"},
      {"measurement": "necrosis of surrounding tissue", "setting": "[4]; injected volume ratio 0.5 of tumor volume, with electroporation", "result": "without creating necrosis in the surrounding tissue"},
      {"measurement": "tumor volume doubling time", "setting": "[4]; isotonic calcium-chloride without electroporation", "result": 6.3, "unit": "days"}
    ]}
  ]
}
